# Source: patent EP0799174B1, “BIOCIDAL ALCOHOLS, THEIR PRODUCTION AND THEIR USE” (SCHÜLKE & MAYR GMBH, priority 1994, dated 1996)
# What was measured:
# [1] = tested on: Microsporon luteus ATCC 15442; test: Skin antiseptic a): test on skin of subjects, contamination after 1 h, ring method; assay type: in vivo; conditions: aromatic alcohol 1.0% in 1-propanol 30.0%, 2-propanol 45.0%, 0.2 ml on 10cm^2 skin, germs removed after 15 minutes, average of all 10 subjects
# Method: • 1-propanol 30.0% • 2-propanol 45.0% • aromatic alcohol 1.0% • dem. water to 100 Test germ: Microsporon luteus ATCC 15442 Test method: Apply 0.2 ml preparation to 10cm^2 skin, allow to dry, cover with TEGADERM® film and leave to work for 1 h, contaminate with 0.1 ml germ suspension, remove after 15 minutes with ring method Reference: Control against Neo-Kodan® Number of subjects: 10 subjects
# [2] = tested on: Staphylococcus aureus ATCC 6538; test: MIC values, water-soluble (inhibition titre, dilution series in CSL); assay type: cell-based
# Method: (§1) Standard formulation: • Rewopal MPG 40 25.0 g • aromatic alcohol 10 mmol • dem.* water to 100 g • lactic acid for adjusting the pH value to 7.0 q.s.
# (§2) In sterile test tubes, 5 ml each of the dilutions of the disinfectant in WSH (water of standardized hardness) are mixed with 5 ml double-concentrated casein peptone soybean flour peptone solution (CSL) or CSL and deactivating substances.
# (§3) To determine the bacteriostatic action on Staphylococcus aureus and Proteus mirabilis the tubes are inoculated by adding 0.1 ml of a CSL culture diluted 1:10 with CSL and incubated for 24 h at 37°C.
# (§4) To test the fungistatic action, 0.1 ml of an undiluted CSL culture of Candida albicans which has been incubated at 37°C for 72 h is used in each case. Evaluation takes place after 72 h at 37°C.
# (§5) The highest dilution of the preparation in CSL or CSL and deactivating substances that still suppresses growth of the test germs after […] incubation serves as the measure of the multiplication-inhibiting action (inhibition titre).
# (§6) In the case of the disinhibition tests, the culture media are to be adjusted to a pH value of 7.0 ± 0.2 according to the state of the disinfectant.
# (§7) Standard formulation: • aromatic alcohol 5.0 % • Brij 58 5.0 % • 1,3-butanediol to 100 • Test germs: see above • Test method: see above
# [3] = tested on: Candida albicans ATCC 10231; test: as above; assay type: cell-based
# Method: as §1, §2, §3, §4, §5, §6, §7
# Microsporon gypseum [4] = test: Foot spray: minimum inhibition concentration; assay type: cell-based; conditions: foot spray formula: 2-propanol 40.0%, aromatic alcohol 0.2 %, allantoin 0.5 %, dem. water to 100
# Text: (§8) Formula: • 2-propanol 40.0% • aromatic alcohol 0.2 % • allantoin 0.5 % • dem. water to 100 Test germs: special skin fungi such as Trichophyton rubrum, Trichophyton mentagrophytes (ATCC 9533), Microsporon gypseum Test method: Determination of the minimum inhibition concentration (method see under 1.) Data in %
# [5] = tested on: Trichophyton mentagrophytes (ATCC 9533); test: Foot spray: minimum inhibition concentration; assay type: cell-based; conditions: foot spray formula: 2-propanol 40.0%, aromatic alcohol 0.2 %, allantoin 0.5 %, dem. water to 100
# Text: as §8
# Trichophyton rubrum [6] = test: Foot spray: minimum inhibition concentration; assay type: cell-based; conditions: foot spray formula: 2-propanol 40.0%, aromatic alcohol 0.2 %, allantoin 0.5 %, dem. water to 100
# Text: as §8
# [7] = tested on: Mycobacterium terrae ATCC 15755; test: Germ carrier experiment with standard cotton; assay type: cell-based; design: key: E: individual colonies; M: several colonies; +: weak growth; ++: moderate growth; +++: heavy growth; ++++: very heavy growth; ∞: lawn growth; conditions: Rewopal MPG 40 25.0%, aromatic alcohol 2.0 %, dem. water to 100
# Method: • Rewopal MPG 40 25.0% • aromatic alcohol 2.0 % • dem. water to 100
# The bacteria are elutriated with 5 ml CSL from a 24 h-old (37°C) culture onto CSA plates measuring approx. 9 cm in diameter, the suspension being diluted with CSL if necessary. The number of CFU/ml is to be determined using surface culture. It should be > 10^9/ml.
# The sterilized and dried germ carriers are introduced into the bacterial suspension and left in it for 15 minutes, during which they are turned over twice.
# A number (4) of contaminated, thoroughly impregnated germ carriers, corresponding to the proposed removal times - 15, 30, 60 and 120 minutes - is placed in a small dish and 10 ml of the disinfectant solution to be tested in WSH are poured over them. Air bubbles are to be removed by repeated turning of the germ carriers.
# After the corresponding action times, the germ carriers are to be removed from the disinfectant solution, and after rinsing twice in each case for 1 min in 10 ml ML solution (see Appendix) to which the deactivating substances were optionally added, the germ carriers are placed onto the surface of a Löwenstein-Jensen nutrient medium with tweezers and moved backwards and forwards 3 to 4 times using light pressure. After inoculating the nutrient medium surface the small cloth is to remain lying directly above the condensed water level of the nutrient medium.
# Germ carriers pre-treated in the same way, but kept in WSH for 120 minutes instead of in disinfectant solution are to be inoculated as a control. The inoculated tubes are incubated at 37°C for 3 weeks.
# [8] = tested on: Penicillium funiculosum ATCC 36839; test: MIC values, water-soluble (inhibition titre, dilution series in CSL); assay type: cell-based
# [9] = tested on: Aspergillus niger ATCC 6275; test: as above; assay type: cell-based
# [10] = tested on: Proteus vulgaris NCTC 4635; test: as above; assay type: cell-based
# [11] = tested on: Trichophyton mentagrophytes; test: Foot spray: agar diffusion test; assay type: cell-based; conditions: foot spray formula with aromatic alcohol 0.2 %
# Text: as §8, with “in % Test germs: special skin fungi such as Trichophyton rubrum, Trichophyton mentagrophytes, Microsporon gypseum Test method: Agar diffusion test Data as millimetres inhibition zone” for “in %”
# Microsporon gypseum [12] = test: Foot spray: agar diffusion test; assay type: cell-based; conditions: foot spray formula with aromatic alcohol 0.2 %
# Text: as §8, with “in % Test germs: special skin fungi such as Trichophyton rubrum, Trichophyton mentagrophytes, Microsporon gypseum Test method: Agar diffusion test Data as millimetres inhibition zone” for “in %”
# Trichophyton rubrum [13] = test: Foot spray: agar diffusion test; assay type: cell-based; conditions: foot spray formula with aromatic alcohol 0.2 %
# Text: as §8, with “in % Test germs: special skin fungi such as Trichophyton rubrum, Trichophyton mentagrophytes, Microsporon gypseum Test method: Agar diffusion test Data as millimetres inhibition zone” for “in %”
# [14] = standard formulation: Rewopal MPG 40 25.0 g, aromatic alcohol 10 mmol, dem. water to 100 g, pH 7.0
# [15] = standard formulation: aromatic alcohol 5.0 %, Brij 58 5.0 %, 1,3-butanediol to 100
SMILES,Average value of RF (reduction factors) [1] [log stages],"MIC (minimum inhibiting concentration) S. aureus [2, 14]","MIC (minimum inhibiting concentration) C. albicans [3, 14] [μmol/100 ml test solution]","minimum inhibition concentration, M. gypseum (Microsporon gypseum [4]) [%]","minimum inhibition concentration, T. mentagrophytes [5] [%]","minimum inhibition concentration, T. rubrum (Trichophyton rubrum [6]) [%]",growth of M. terrae after action time 15' [7],growth of M. terrae after action time 30' [7],growth of M. terrae after action time 60' [7],growth of M. terrae after action time 120' [7],"MIC (minimum inhibiting concentration) P. funi. [8, 14] [μmol/100 ml test solution]","MIC (minimum inhibiting concentration) A. niger [9, 14] [μmol/100 ml test solution]","MIC (minimum inhibiting concentration) P. vulgaris [10, 14]","inhibition zone, T. mentagrophytes ([11]; use concentration 100%) [mm]","inhibition zone, M. gypseum (Microsporon gypseum [12]; use concentration 100%) [mm]","inhibition zone, T. rubrum (Trichophyton rubrum [13]; use concentration 100%) [mm]",further results
"OCCCc1ccccc1 [Alcohol 1, 3-phenyl propanol, reference compound]",0,"1,250 μmol/100 ml test solution",625,6.25,6.25,6.25,++++,++++,+++,+++,313,625,625 μmol/100 ml test solution,0,0,0,"MIC (minimum inhibiting concentration) S. aureus [2, 15]: 1,250 µmol/100 ml test solution; MIC (minimum inhibiting concentration) C. albicans [3, 15]: 625 µmol/100 ml test solution; MIC (minimum inhibiting concentration) P. funi. [8, 15]: 313 µmol/100 ml test solution; MIC (minimum inhibiting concentration) A. niger [9, 15]: 625 µmol/100 ml test solution; MIC (minimum inhibiting concentration) P. vulgaris [10, 15]: 625 µmol/100 ml test solution"
"CCCCCC(=Cc1ccccc1)CO [Alcohol 8, α-amyl cinnamyl alcohol]",1.9,39 μmol/100 ml test solution,313,1.56,1.56,1.56,+++,++,+,E,313,156,"1,250 μmol/100 ml test solution",22,19,23,"inhibition zone, T. mentagrophytes ([11]; use concentration 50%): 14 mm; inhibition zone, M. gypseum (Microsporon gypseum [12]; use concentration 50%): 10 mm; inhibition zone, T. rubrum (Trichophyton rubrum [13]; use concentration 50%): 14 mm"
